Measurements published in patent US20220033418A1, “HETEROCYCLENE DERIVATIVES AS PEST CONTROL AGENTS” (Bayer Aktiengesellschaft, priority 2018, published 2022).

Tests used:
[1] = log P by reversed-phase HPLC, acidic range; format: physicochemical; details: reversed-phase C18 HPLC column, formic acid in water/acetonitrile
Experimental: The log P values were determined according to EEC Directive 79/831 Annex V.A8 by HPLC (high-performance liquid chromatography) on a reversed-phase column (C18) using the following methods: ^[a] The log P value is determined by LC-UV measurement in the acidic range using 0.9 ml/1 formic acid in water and 1.0 ml/1 formic acid in acetonitrile as mobile phases (linear gradient from 10% acetonitrile to 95% acetonitrile). Calibration was carried out using a homologous series of straight-chain alkan-2-ones (having 3 to 16 carbon atoms) with known log P values. The values between successive alkanones are determined by linear regression.

Myzus persicae [2] = assay: Myzus persicae spray test (MYZUPE), comparative, bell pepper plants; format: in vivo; details: 144 h, 6 dat (days after treatment), read-out: % Efficacy MYZUPE
Experimental: Myzus persicae—Spray Test (MYZUPE) Solvent: 14 parts by weight of dimethylformamide Emulsifier: alkylaryl polyglycol ether To produce a suitable active compound formulation, 1 part by weight of active compound is dissolved using the stated parts by weight of solvent and made up with water containing an emulsifier concentration of 1000 ppm until the desired concentration is attained. To produce further test concentrations, the formulation is diluted with emulsifier-containing water. If the addition of ammonium salts or/and penetrants is required, these are each added in a concentration of 1000 ppm to the formulation solution. Bell pepper plants (Capsicum annuum) severely infested with the green peach aphid (Myzus persicae) are treated by spraying with the active compound formulation in the desired concentration. After the desired time, the kill in % is determined. 100% means that all the animals have been killed; 0% means that no animals have been killed.

Diabrotica balteata [3] = assay: Diabrotica balteata drench test (DIABBA), comparative; format: in vivo; details: soil, 192 h, 8 dat (days after treatment), read-out: % Efficacy DIABBA
Experimental: Diabrotica balteata—Drench Test (DIABBA) Solvent: 7 parts by weight of dimethylformamide Emulsifier: 2 parts by weight of alkylaryl polyglycol ether To produce a suitable active compound preparation, 1 part by weight of active compound is mixed with the specified amounts of solvent and emulsifier, and the concentrate is diluted with water to the desired concentration, it being necessary to include the volume of soil which is drenched in the calculation. It should be ensured that a concentration of 40 ppm of emulsifier in the soil is not exceeded. To produce further test concentrations, water is used for dilution. In each case 5 […] (Zea mays) are sown into pots filled with earth, and the next day the pots are watered with the active compound preparation of the desired concentration. After one day, about 25 L2 larvae of the banded cucumber beetle (Diabrotica balteata) are added. After 8 days, the efficacy in % is determined. 100% means that all 5 plants have germinated and grown; 0% means that none of the plants has emerged.

Phaedon cochleariae = Phaedon cochleariae spray test; format: in vivo; details: 100 g/ha, Chinese cabbage leaf disks, after 7 days
Experimental: Phaedon cochleariae—Spray Test
Solvent: 78.0 parts by weight of acetone • • 1.5 parts by weight of dimethylformamide
Emulsifier: alkylaryl polyglycol ether
To produce a suitable active compound formulation, 1 part by weight of active compound is dissolved using the stated parts by weight of solvent and made up with water containing an emulsifier concentration of 1000 ppm until the desired concentration is attained. To produce further test concentrations, the formulation is diluted with emulsifier-containing water.
Disks of Chinese cabbage leaves (Brassica pekinensis) are sprayed with an active compound formulation of the desired concentration and, after drying, populated with larvae of the mustard beetle (Phaedon cochleariae).
After 7 days, the efficacy in % is determined. 100% means that all the beetle larvae have been killed; 0% means that no beetle larvae have been killed.

Myzus persicae [4] = assay: Myzus persicae oral test; format: in vivo; details: 4 ppm, after 5 days
Experimental: Myzus persicae—Oral Test Solvent: 100 parts by weight of acetone To produce a suitable active compound formulation, 1 part by weight of active compound is dissolved using the specified parts by weight of solvent and made up with water until the desired concentration is attained. 50 μl of the active compound preparation are transferred into microtitre plates and made up to a final volume of 200 μl with 150 μl of IPL41 insect medium (33%+15% sugar). Subsequently, the plates are sealed with parafilm, which a mixed population of green peach aphids (Myzus persicae) within a second microtitre plate is able to puncture and imbibe the solution through. After 5 days, the efficacy in % is determined. 100% means that all the aphids have been killed; 0% means that no aphids have been killed.

Spodoptera frugiperda = Spodoptera frugiperda spray test; format: in vivo; details: 100 g/ha, corn leaf disks, after 7 days
Experimental: Spodoptera frugiperda—Spray Test Solvent: 78.0 parts by weight of acetone • • 1.5 parts by weight of dimethylformamide Emulsifier: alkylaryl polyglycol ether To produce a suitable active compound formulation, 1 part by weight of active compound is dissolved using the stated parts by weight of solvent and made up with water containing an emulsifier concentration of 1000 ppm until the desired concentration is attained. To produce further test concentrations, the formulation is diluted with emulsifier-containing water. Leaf disks of corn (Zea mays) are sprayed with an active compound formulation of the desired concentration and, after drying, populated with caterpillars of the fall armyworm (Spodoptera frugiperda). After 7 days, the efficacy in % is determined. 100% means that all the caterpillars have been killed; 0% means that no caterpillar has been killed.

Ctenocephalides felis = Ctenocephalides felis oral test; format: in vivo; details: 100 ppm, oral via blood, after 2 days
Experimental: Ctenocephalides felis—Oral Test
Solvent: dimethyl sulfoxide
To produce a suitable active compound formulation, 10 mg of active compound are mixed with 0.5 ml of dimethyl sulfoxide. Dilution with citrated cattle blood gives the desired concentration.
About 20 unfed adult cat fleas (Ctenocephalides fells) are placed into a chamber which is closed at the top and bottom with gauze. A metal cylinder whose bottom end is closed with parafilm is placed onto the chamber. The cylinder contains the blood/active compound formulation, which can be imbibed by the fleas through the parafilm membrane.
After 2 days, the kill in % is determined. 100% means that all of the fleas have been killed; 0% means that none of the fleas have been killed.

Myzus persicae [5] = assay: Myzus persicae spray test (Chinese cabbage leaf disks); format: in vivo; details: 100 g/ha, after 5 days
Experimental: Myzus persicae—Spray Test Solvent: 78 parts by weight of acetone • • 1.5 parts by weight of dimethylformamide Emulsifier: alkylaryl polyglycol ether To produce a suitable active compound formulation, 1 part by weight of active compound is dissolved using the stated parts by weight of solvent and made up with water containing an emulsifier concentration of 1000 ppm until the desired concentration is attained. To produce further test concentrations, the formulation is diluted with emulsifier-containing water. Disks of Chinese cabbage leaves (Brassica pekinensis) infested by all stages of the green peach aphid (Myzus persicae) are sprayed with an active compound formulation of the desired concentration. After 5 days, the efficacy in % is determined. 100% means that all the aphids have been killed; 0% means that no aphids have been killed.

Diabrotica balteata [6] = assay: Diabrotica balteata spray test; format: in vivo; details: 500 g/ha (=160 μg/cavity), after 7 days
Experimental: Diabrotica balteata—Spray Test Solvent: 78 parts by weight of acetone • • 1.5 parts by weight of dimethylformamide Emulsifier: alkylaryl polyglycol ether To produce a suitable active compound formulation, 1 part by weight of active compound is dissolved using the stated parts by weight of solvent and made up with water containing an emulsifier concentration of 1000 ppm until the desired concentration is attained. To produce further test concentrations, the formulation is diluted with emulsifier-containing water. Pre-swollen wheat grains (Triticum aestivum) are incubated in a multiwell plate filled with agar and a little water for one day (5 seed grains per cavity). The germinated wheat grains are sprayed with an active compound formulation of the desired concentration. Subsequently, each cavity is infected with 10-20 beetle larvae of Diabrotica balteata. After 7 days, the efficacy in % is determined. 100% means that all wheat plants have grown as in the untreated, uninfected control; 0% means that no wheat plant has grown.

Boophilus microplus = Boophilus microplus injection test; format: in vivo; details: 20 μg/animal, assessed after 7 days
Experimental: Boophilus microplus—Injection Test Solvent: dimethyl sulfoxide To produce a suitable active compound formulation, 10 mg of active compound are mixed with 0.5 ml of solvent and the concentrate is diluted to the desired concentration with solvent. 1 μl of the active compound solution is injected into the abdomen of 5 engorged adult female cattle ticks (Boophilus microplus). The animals are transferred into dishes and kept in a climate-controlled room. Efficacy is assessed after 7 days by laying of fertile eggs. Eggs which are not visibly fertile are stored in a climate-controlled cabinet until the larvae hatch after about 42 days. An efficacy of 100% means that none of the ticks has laid any fertile eggs; 0% means that all the eggs are fertile.

| SMILES | chromatographic logP [1] | Emax at 0.8 ppm (Myzus persicae [2]) [%] | Emax at 0.8 ppm (Diabrotica balteata [3]) [%] | efficacy (Phaedon cochleariae) [%] | efficacy (Myzus persicae [4]) [%] | efficacy (Spodoptera frugiperda) [%] | efficacy (kill in %) (Ctenocephalides felis) [%] | efficacy (Myzus persicae [5]) [%] | efficacy (Diabrotica balteata [6]) [%] | efficacy (no laying of fertile eggs) (Boophilus microplus) [%] |
| --- | --- | --- | --- | --- | --- | --- | --- | --- | --- | --- |
| Cn1c(-c2nn3cc(C4(C#N)CC4)ccc3c2Br)nc2cc(OC(F)(F)F)cnc21 [1-[3-Bromo-2-[3-methyl-6-(trifluoromethoxy)imidazo[4,5-b]pyridin-2-yl]pyrazolo[1,5-a]pyridin-6-yl]cyclopropanecarbonitrile] | 3.9 | – | – | – | – | – | – | – | – | – |
| CCS(=O)(=O)c1c(-c2nc3cc(OC(F)(F)F)cnc3n2C)nn2cc(C3(C#N)CC3)ccc12 [Example I-1, 1-[3-Ethylsulfonyl-2-[3-methyl-6-(trifluoromethoxy)imidazo[4,5-b]pyridin-2-yl]pyrazolo[1,5-a]pyridin-6-yl]cyclopropanecarbonitrile] | 3.18 | 100 | 80 | 100 | 100 | 100 | 100 | 100 | – | – |
| CCS(=O)(=O)c1c(-c2nc3cc(OC(F)(F)F)ccc3n2C)nn2cc(C3(C#N)CC3)ccc12 [Example I-2, 1-[3-Ethylsulfonyl-2-[1-methyl-5-(trifluoromethoxy)benzimidazol-2-yl]pyrazolo[1,5-a]pyridin-6-yl]cyclopropanecarbonitrile] | 3.29 | – | – | – | 100 | 100 | – | – | 100 | – |
| CCS(=O)(=O)c1c(-c2nc3cc(C(F)(F)F)cnc3n2C)nn2cc(C3(C#N)CC3)ccc12 [prior art according to WO2017/155103, reference compound] | – | 40 | 50 | – | – | – | – | – | – | – |

Second part, led by results:

| chromatographic logP [1] | SMILES | Emax at 0.8 ppm (Myzus persicae [2]) [%] | Emax at 0.8 ppm (Diabrotica balteata [3]) [%] | efficacy (Phaedon cochleariae) [%] | efficacy (Myzus persicae [4]) [%] | efficacy (Spodoptera frugiperda) [%] | efficacy (kill in %) (Ctenocephalides felis) [%] | efficacy (Myzus persicae [5]) [%] | efficacy (Diabrotica balteata [6]) [%] | efficacy (no laying of fertile eggs) (Boophilus microplus) [%] |
| --- | --- | --- | --- | --- | --- | --- | --- | --- | --- | --- |
| 3.18 | CCS(=O)(=O)c1c(-c2nc3cc4c(cc3n2C)OC(F)(F)O4)nn2cc(C3(C#N)CC3)ccc12 [Example I-3, 1-[2-(2,2-Difluoro-7-methyl-[1,3]dioxolo[4,5-f]benzimidazol-6-yl)-3-ethylsulfonylpyrazolo[1,5-a]pyridin-6-yl]cyclopropanecarbonitrile] | – | – | – | 100 | 100 | – | – | 100 | – |
| 3.22 | CCS(=O)(=O)c1c(-c2nc3cc4c(nc3n2C)OC(F)(F)O4)nn2cc(C3(C#N)CC3)ccc12 [Example I-4, 1-[3-Ethylsulfonyl-2-[2,2-difluoro-7-methyl-[1,3]dioxoloimidazo[4,5-b]pyridin-6-yl]pyrazolo[1,5-a]pyridin-6-yl]cyclopropanecarbonitrile] | – | – | 100 | 100 | 100 | 100 | 90 | – | 80 |
| 3.76 | CCS(=O)(=O)c1c(-c2nc3cc(OC(F)(F)C(F)(F)F)cnc3n2C)nn2cc(C3(C#N)CC3)ccc12 [Example I-5, 1-[3-Ethylsulfonyl-2-[3-methyl-6-(1,1,2,2,2-pentafluoroethoxy)imidazo[4,5-b]pyridin-2-yl]pyrazolo[1,5-a]pyridin-6-yl]cyclopropanecarbonitrile] | – | – | – | – | 100 | – | – | 100 | – |
